{"source": "patent US8987474B2", "about": "(University of South Florida, priority 2006, dated 2015)", "key": {"[1]": {"target": "PTP1B (Homo sapiens (Human), UniProt P18031)", "sequence (P18031 whole entry)": "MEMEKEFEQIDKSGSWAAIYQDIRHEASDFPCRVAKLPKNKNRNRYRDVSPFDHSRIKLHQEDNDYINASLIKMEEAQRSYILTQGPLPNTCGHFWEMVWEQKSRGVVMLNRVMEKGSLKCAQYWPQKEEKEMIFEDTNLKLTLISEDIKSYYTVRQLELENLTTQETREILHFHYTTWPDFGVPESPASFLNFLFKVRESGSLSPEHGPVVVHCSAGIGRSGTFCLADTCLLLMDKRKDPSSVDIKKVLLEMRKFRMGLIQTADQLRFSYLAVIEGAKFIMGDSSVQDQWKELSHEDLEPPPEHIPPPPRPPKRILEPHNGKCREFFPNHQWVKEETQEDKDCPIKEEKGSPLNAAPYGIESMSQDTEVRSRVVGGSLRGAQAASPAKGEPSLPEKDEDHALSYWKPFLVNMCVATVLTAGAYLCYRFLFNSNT", "assay": "PTP activity assay (DiFMUP substrate) with GST-PTP1B", "format": "biochemical", "settings": "in vitro", "excerpt": "All constructs were verified by DNA sequencing.\nRecombinant DEP1 was from Abcam."}, "[2]": {"target": "DEP1 (Homo sapiens (Human), UniProt Q12913)", "sequence (Q12913 36-1337)": "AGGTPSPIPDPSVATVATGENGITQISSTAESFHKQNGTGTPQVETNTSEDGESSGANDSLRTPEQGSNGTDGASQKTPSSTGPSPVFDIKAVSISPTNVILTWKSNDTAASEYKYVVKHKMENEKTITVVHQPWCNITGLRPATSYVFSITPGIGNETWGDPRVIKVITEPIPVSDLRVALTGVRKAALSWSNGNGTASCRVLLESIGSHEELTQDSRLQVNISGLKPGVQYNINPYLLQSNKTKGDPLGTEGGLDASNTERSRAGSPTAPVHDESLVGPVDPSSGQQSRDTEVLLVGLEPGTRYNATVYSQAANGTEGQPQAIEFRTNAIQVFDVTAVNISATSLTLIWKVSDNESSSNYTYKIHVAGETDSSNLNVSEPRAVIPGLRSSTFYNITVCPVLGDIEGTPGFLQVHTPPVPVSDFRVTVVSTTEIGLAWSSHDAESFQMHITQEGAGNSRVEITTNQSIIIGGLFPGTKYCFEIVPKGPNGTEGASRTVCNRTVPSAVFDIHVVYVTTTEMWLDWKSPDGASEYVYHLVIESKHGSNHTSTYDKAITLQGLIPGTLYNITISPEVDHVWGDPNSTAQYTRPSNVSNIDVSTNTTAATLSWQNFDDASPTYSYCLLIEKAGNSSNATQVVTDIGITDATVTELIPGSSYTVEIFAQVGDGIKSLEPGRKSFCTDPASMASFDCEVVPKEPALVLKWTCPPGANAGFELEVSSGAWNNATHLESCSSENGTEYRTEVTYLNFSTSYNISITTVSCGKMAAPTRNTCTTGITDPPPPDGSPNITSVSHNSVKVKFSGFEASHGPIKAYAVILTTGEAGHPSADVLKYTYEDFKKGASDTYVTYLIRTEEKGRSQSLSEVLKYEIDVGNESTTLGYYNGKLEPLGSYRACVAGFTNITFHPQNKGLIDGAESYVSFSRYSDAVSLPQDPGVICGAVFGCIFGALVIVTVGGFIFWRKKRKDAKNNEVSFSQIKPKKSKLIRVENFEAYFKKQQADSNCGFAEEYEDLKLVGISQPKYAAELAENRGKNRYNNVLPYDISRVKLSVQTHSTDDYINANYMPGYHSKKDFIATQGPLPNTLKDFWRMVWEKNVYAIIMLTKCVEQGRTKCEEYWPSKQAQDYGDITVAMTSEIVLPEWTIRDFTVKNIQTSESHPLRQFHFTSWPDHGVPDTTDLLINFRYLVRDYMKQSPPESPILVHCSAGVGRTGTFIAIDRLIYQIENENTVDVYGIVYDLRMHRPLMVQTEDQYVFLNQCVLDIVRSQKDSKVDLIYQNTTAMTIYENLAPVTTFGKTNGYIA", "assay": "PTP activity assay (DiFMUP substrate) with recombinant DEP1", "format": "biochemical", "settings": "DEP1, in vitro"}, "[3]": {"target": "CD45 (Homo sapiens (Human), UniProt P08575)", "sequence (P08575 609-1306)": "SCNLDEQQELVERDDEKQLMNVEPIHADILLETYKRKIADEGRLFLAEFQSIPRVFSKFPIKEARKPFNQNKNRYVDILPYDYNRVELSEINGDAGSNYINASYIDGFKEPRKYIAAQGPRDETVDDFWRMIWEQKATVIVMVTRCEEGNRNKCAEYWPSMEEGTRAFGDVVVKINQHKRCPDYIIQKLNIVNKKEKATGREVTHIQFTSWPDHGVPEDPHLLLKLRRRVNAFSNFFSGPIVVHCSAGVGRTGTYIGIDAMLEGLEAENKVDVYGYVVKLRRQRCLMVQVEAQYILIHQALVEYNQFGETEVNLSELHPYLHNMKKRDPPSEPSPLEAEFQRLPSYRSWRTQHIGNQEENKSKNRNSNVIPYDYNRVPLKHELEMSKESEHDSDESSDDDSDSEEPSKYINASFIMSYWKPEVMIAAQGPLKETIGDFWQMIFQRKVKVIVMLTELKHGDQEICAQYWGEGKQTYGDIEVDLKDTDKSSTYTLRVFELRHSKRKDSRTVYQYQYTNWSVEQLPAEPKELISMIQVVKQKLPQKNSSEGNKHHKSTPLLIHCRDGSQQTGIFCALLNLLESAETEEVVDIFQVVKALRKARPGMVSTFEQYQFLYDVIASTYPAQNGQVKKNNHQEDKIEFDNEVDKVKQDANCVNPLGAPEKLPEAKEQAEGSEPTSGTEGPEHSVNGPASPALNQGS", "assay": "PTP activity assay (DiFMUP substrate) with recombinant CD45", "format": "biochemical", "settings": "CD45, in vitro"}, "[4]": {"target": "LAR (Homo sapiens (Human), UniProt P10586)", "sequence (P10586 1352-1607)": "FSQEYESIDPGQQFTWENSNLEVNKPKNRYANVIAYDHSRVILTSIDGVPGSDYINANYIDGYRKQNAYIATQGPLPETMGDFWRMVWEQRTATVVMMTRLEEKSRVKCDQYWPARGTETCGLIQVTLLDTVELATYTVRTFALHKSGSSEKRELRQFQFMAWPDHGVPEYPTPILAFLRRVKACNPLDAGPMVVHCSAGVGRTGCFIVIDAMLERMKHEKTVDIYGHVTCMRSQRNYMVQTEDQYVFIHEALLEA", "assay": "PTP activity assay (DiFMUP substrate) with LAR D1 domain", "format": "biochemical", "settings": "in vitro"}, "[5]": {"tested_on": "Gab1 tyrosine phosphorylation and Gab1-Shp2 association", "assay": "EGF-induced Gab1 tyrosine phosphorylation and Gab1-Shp2 association in HEK293 cells", "format": "cell-based", "settings": "20 μM, 3 h, EGF 5 ng/ml 5 min", "method": ". Gab1 was immunoprecipitated from cell lysate supernatants. Immunoprecipitates were analyzed by immunoblotting with antibodies to phosphotyrosine (pY), Gab1, or Shp2. An aliquot of each cell lysate supernatant (30 μg) was also examined by immunoblotting with an antibody to Shp2 (bottom panel). pY-Gab1, tyrosine-phosphorylated Gab1.\nShp2 is activated in EGF-stimulated cells by binding to tyrosine-phosphorylated Gab1 (and Gab2 if it is also expressed) (Cunnick et al., 2001). […] . […] . […] ."}, "[6]": {"target": "Shp1 (Homo sapiens (Human), UniProt P29350)", "sequence (P29350 203-595)": "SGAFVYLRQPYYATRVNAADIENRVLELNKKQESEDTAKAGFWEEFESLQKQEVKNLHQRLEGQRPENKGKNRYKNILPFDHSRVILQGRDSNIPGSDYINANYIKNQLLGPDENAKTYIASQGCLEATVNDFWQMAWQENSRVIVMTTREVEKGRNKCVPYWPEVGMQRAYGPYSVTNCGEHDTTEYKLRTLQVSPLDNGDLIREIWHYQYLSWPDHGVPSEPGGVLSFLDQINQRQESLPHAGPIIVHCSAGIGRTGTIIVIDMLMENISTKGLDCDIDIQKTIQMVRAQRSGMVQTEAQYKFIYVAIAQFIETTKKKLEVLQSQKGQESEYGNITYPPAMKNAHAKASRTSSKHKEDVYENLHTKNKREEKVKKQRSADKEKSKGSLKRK", "assay": "biochemical"}}}
{"compound": "O=S(=O)(O)c1ccc2cc(/N=N\\c3cc(S(=O)(=O)O)c4cccnc4c3O)ccc2c1", "note": "[NSC-87877, 8-hydroxy-7-(6-sulfonaphthalen-2-yl)diazenyl-quinoline-5-sulfonic acid]", "values": [{"measurement": "IC50", "setting": "[1]", "value": "1.69 ± 0.407", "unit": "µM"}, {"measurement": "IC50", "setting": "[2]", "value": "65.6 ± 4.12", "unit": "µM"}, {"measurement": "IC50", "setting": "[3]", "value": "84.5 ± 16.2", "unit": "µM"}, {"measurement": "IC50", "setting": "[4]", "value": "151 ± 9.08", "unit": "µM"}, {"measurement": "EGF-stimulated Gab1 tyrosine phosphorylation", "setting": "[5]", "value": "did not inhibit"}, {"measurement": "binding of Shp2 to Gab1", "setting": "[5]", "value": "did not inhibit"}, {"measurement": "IC50", "setting": "[6]", "value": 0.355, "unit": "µM"}]}
